The text below walks through data of PubChem BioAssay (NCI).

Test systems include DU-145 prostate; SNB-19 CNS; NCI-H460 lung; NCI-H522 lung; LOX IMVI melanoma; OVCAR-3 ovarian; UACC-62 melanoma; OVCAR-4 ovarian; MDA-MB-231 breast; HOP-62 NSCLC.
Common to all, as to assay: DTP human tumour cell line panel, 48 h

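Interpolation was linear, between the two tested concentrations surrounding the appropriate level; five concentrations were tested over 48 hours in 96-well plates. The concentration for 50% growth inhibition is given as GI50. Definition used: TGI = concentration required for complete inhibition of growth.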

On to `C[C@]12CC[C@H]3[C@@H](CCC4=CC(=O)CC[C@@H]43)[C@@H]1CC[C@@H]2OC(=O)N(CCCl)N=O`, for which the GI50 with DU-145 prostate is 0.433 µM; in the assay with SNB-19 CNS, 0.265 µM; in the assay on NCI-H460 lung, 0.0702 µM; in the assay on NCI-H522 lung, 5.79 µM; with LOX IMVI melanoma, 1.1 µM; with OVCAR-3 ovarian it was 7.83 µM. Further, the GI50 with UACC-62 melanoma is 0.413 µM; in the assay with OVCAR-4 ovarian, 10.8 µM; with MDA-MB-231 breast, 14.2 µM; in the assay on HOP-62 NSCLC it was 3.17 µM. Besides, the TGI in the assay with DU-145 prostate amounted to 4.41 µM; with SNB-19 CNS it was 24.3 µM; with NCI-H460 lung it was 2.45 µM; in the assay on NCI-H522 lung it was 29 µM; in the assay with LOX IMVI melanoma, 23.9 µM; in the assay with OVCAR-3 ovarian, 21.8 µM. Besides, the TGI with UACC-62 melanoma came out at 18.1 µM; in the assay with OVCAR-4 ovarian it was 31.2 µM; in the assay on MDA-MB-231 breast, 37.9 µM; with HOP-62 NSCLC it was 26.1 µM.

Consider `N#CSc1ncnc2nc[nH]c12`, for which the GI50 in the assay with DU-145 prostate is 0.548 µM; in the assay with SNB-19 CNS, above 100 µM; in the assay on NCI-H460 lung, 17.3 µM; in the assay on NCI-H522 lung, 3.32 µM; in the assay with LOX IMVI melanoma, 1.09 µM; in the assay on OVCAR-3 ovarian, 1.66 µM. The GI50 with UACC-62 melanoma is 4.1 µM; with OVCAR-4 ovarian, 2.37 µM; with MDA-MB-231 breast, 11.2 µM; in the assay with HOP-62 NSCLC, 2.31 µM. The TGI in the assay on DU-145 prostate is above 38.7 µM; in the assay with SNB-19 CNS, above 100 µM; in the assay with NCI-H460 lung, above 100 µM; in the assay on NCI-H522 lung it was 25.6 µM; with LOX IMVI melanoma, above 91.6 µM; in the assay on OVCAR-3 ovarian, above 31.6 µM. In addition, the TGI in the assay with UACC-62 melanoma, in the assay on OVCAR-4 ovarian, in the assay with MDA-MB-231 breast and in the assay with HOP-62 NSCLC was above 100 µM throughout.

In the case of `O=C(O)[C@@H]1C2CC([C@@H]1C(=O)O)[C@H](N1C(=O)CCC1=O)[C@@H]2Br` (some centres undefined), the TGI in the assay with DU-145 prostate, in the assay on SNB-19 CNS, in the assay with NCI-H460 lung, in the assay on NCI-H522 lung, in the assay with LOX IMVI melanoma and with OVCAR-3 ovarian was above 100 µM throughout. Further, the TGI in the assay with UACC-62 melanoma, with OVCAR-4 ovarian, with MDA-MB-231 breast and with HOP-62 NSCLC was above 100 µM in each case.

Regarding `Nc1nc(/C=C\c2ccc([N+](=O)[O-])o2)nc(N2CCN(c3ccccc3)CC2)n1`, the GI50 in the assay on DU-145 prostate was 3.9 µM; with SNB-19 CNS, 20 µM; in the assay with NCI-H460 lung, 3.09 µM; with NCI-H522 lung, 3.02 µM; with LOX IMVI melanoma, 3.49 µM; in the assay on OVCAR-3 ovarian, 3.96 µM. Moreover, the GI50 in the assay on UACC-62 melanoma is 7.36 µM; in the assay with OVCAR-4 ovarian it was 27.2 µM; with MDA-MB-231 breast, 3.51 µM; with HOP-62 NSCLC, 17.5 µM. Further, the TGI was 41.4 µM in the assay on DU-145 prostate; 83.8 µM in the assay on SNB-19 CNS; above 100 µM in the assay on NCI-H460 lung; 9.94 µM in the assay with NCI-H522 lung; 21.2 µM with LOX IMVI melanoma; 18.2 µM with OVCAR-3 ovarian. The TGI is 25.8 µM in the assay on UACC-62 melanoma, above 100 µM in the assay on OVCAR-4 ovarian, 13.3 µM with MDA-MB-231 breast and 51.3 µM in the assay on HOP-62 NSCLC.

With `O=S(=O)(c1ccc(NC(=S)NCc2cccnc2)cc1)N1CCCCC1`, the GI50 in the assay on DU-145 prostate was 6.12 µM; in the assay on SNB-19 CNS, 9.5 µM; with NCI-H460 lung, 7.67 µM; in the assay with NCI-H522 lung, 10.1 µM; in the assay on LOX IMVI melanoma, 6.93 µM; in the assay with OVCAR-3 ovarian it was 52.6 µM. Besides, the GI50 in the assay on UACC-62 melanoma is 23.4 µM; in the assay on OVCAR-4 ovarian, 23 µM; in the assay with MDA-MB-231 breast it was 26.4 µM; with HOP-62 NSCLC, above 100 µM. For the same molecule, the concentration for total growth inhibition (TGI) with DU-145 prostate, in the assay with SNB-19 CNS, in the assay on NCI-H460 lung, with NCI-H522 lung, with LOX IMVI melanoma and in the assay on OVCAR-3 ovarian was above 100 µM in each case. The TGI in the assay on UACC-62 melanoma, in the assay on OVCAR-4 ovarian, in the assay on MDA-MB-231 breast and with HOP-62 NSCLC was above 100 µM each time.

Consider `CCc1c(C)[nH]c(/C=C2\N=C(c3ccc[nH]3)C=C2OC)c1C`, for which the GI50 in the assay on DU-145 prostate is 0.219 µM; in the assay with SNB-19 CNS, 1.96 µM; with NCI-H460 lung, 0.094 µM; with NCI-H522 lung, 0.576 µM; with LOX IMVI melanoma, below 0.0328 µM; in the assay on OVCAR-3 ovarian, 0.143 µM. Further, the GI50 in the assay on UACC-62 melanoma was 0.341 µM; in the assay with OVCAR-4 ovarian, 0.893 µM; with MDA-MB-231 breast it was 0.128 µM; with HOP-62 NSCLC it was 0.25 µM. Also, the TGI was found to be 11 µM with DU-145 prostate; 15.7 µM in the assay with SNB-19 CNS; 10.8 µM in the assay on NCI-H460 lung; 2.34 µM with NCI-H522 lung; 3.18 µM with OVCAR-3 ovarian; 1.59 µM in the assay on UACC-62 melanoma. Also, the values for the TGI with OVCAR-4 ovarian, in the assay on MDA-MB-231 breast and with HOP-62 NSCLC were 12.5 µM, 3.16 µM and 4.04 µM, respectively.
